Measurements from US20260090997A1, “Lipid Nanoparticles Comprising Nucleic Acids Encoding Therapeutic Genes and Uses in Medical Methods” (priority 2022, published 2026).

System: FADU xenografts
Experiment: Intratumoral NanoLuc mRNA delivery into FADU xenografts, bioluminescence
Assay type: in vivo, Nu/J mice
Conditions: LNPs containing MC3, cKK-E12, SM-102 or C12-200
From the text: FIG. 5A illustrates different LNPs formulated to carry NanoLuc reporter mRNA to evaluate effective intratumoral injections into FADU xenografts. To identify the most suitable ionizable lipid for intratumoral delivery, an in vivo imaging system was used to quantify the bioluminescence resulting from the functional delivery of NanoLuc mRNA using LNPs containing four different ionizable lipids: MC3, cKK-E12, SM-102, and C12-200.

Structure (SMILES): CCCCCCCCCCC(O)CN(CCN1CCN(CCN(CC(O)CCCCCCCCCC)CC(O)CCCCCCCCCC)CC1)CCN(CC(O)CCCCCCCCCC)CC(O)CCCCCCCCCC (stereo not shown) [C12-200]
- bioluminescence from functional delivery of NanoLuc mRNA, comparison of ionizable lipids: optimal ionizable lipid
